Tests used:
Assay in all cases: KINOMEscan competition binding
Conditions in all cases: compound 1.0 µM
MAP3K1 (human) = MAP3K1 (human) (UniProt Q13233)
MAPK3 (human) = MAPK3 (human) (UniProt P27361)
RIOK1 (human) = RIOK1 (human) (UniProt Q9BRS2)
ROCK2 (human) = ROCK2 (human) (UniProt O75116)
SRPK2 (human) = SRPK2 (human) (UniProt P78362)
MERTK (human) = MERTK (human) (UniProt Q12866)
[1] = test system: FLT3 (human), P36888 [ITD]
MARK3 (human) = MARK3 (human) (UniProt P27448)
WEE2 (human) = WEE2 (human) (UniProt P0C1S8)
NTRK2 (human) = NTRK2 (human) (UniProt Q16620)
MAP2K5 (human) = MAP2K5 (human) (UniProt Q13163)
MAP2K4 (human) = MAP2K4 (human) (UniProt P45985)
RPS6KA4 KD1 (human) = RPS6KA4 KD1 (human) (UniProt O75676)
[2] = test system: KIT (human), P10721 [V559D/T670I]
Sequence of KIT (human), P10721 [V559D/T670I] (P10721 whole entry V559D/T670I, looked up): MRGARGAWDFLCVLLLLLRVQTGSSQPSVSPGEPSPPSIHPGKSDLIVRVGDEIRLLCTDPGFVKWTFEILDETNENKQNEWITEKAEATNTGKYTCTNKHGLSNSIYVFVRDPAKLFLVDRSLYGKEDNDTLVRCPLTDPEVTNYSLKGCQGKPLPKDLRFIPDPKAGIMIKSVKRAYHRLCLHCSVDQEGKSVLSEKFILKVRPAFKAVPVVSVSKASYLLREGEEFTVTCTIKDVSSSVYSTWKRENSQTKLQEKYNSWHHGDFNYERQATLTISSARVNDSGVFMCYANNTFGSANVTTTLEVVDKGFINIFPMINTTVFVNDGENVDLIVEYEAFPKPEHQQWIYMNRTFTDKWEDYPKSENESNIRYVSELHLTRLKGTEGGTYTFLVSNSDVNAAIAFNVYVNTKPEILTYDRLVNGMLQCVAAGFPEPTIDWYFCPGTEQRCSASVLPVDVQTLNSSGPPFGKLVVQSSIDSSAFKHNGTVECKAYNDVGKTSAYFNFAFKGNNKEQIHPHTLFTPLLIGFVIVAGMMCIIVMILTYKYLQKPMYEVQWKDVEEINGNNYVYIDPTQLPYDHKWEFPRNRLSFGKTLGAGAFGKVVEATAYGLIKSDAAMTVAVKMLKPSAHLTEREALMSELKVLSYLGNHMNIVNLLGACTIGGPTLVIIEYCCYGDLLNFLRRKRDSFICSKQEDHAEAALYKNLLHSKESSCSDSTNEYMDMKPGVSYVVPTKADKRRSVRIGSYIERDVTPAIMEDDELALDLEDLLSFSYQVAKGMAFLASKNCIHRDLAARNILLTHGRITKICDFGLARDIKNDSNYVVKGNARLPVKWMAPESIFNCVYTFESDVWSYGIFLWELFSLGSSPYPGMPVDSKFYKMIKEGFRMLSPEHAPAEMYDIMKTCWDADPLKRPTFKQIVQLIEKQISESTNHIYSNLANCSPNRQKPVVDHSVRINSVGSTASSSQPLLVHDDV

NUAK2 (human) = NUAK2 (human) (UniProt Q9H093)
PKN1 (human) = PKN1 (human) (UniProt Q16512)
STK32A (human) = STK32A (human) (UniProt Q8WU08)
ACVR2A (human) = ACVR2A (human) (UniProt P27037)
HIPK3 (human) = HIPK3 (human) (UniProt Q9H422)
RPS6KA6 KD2 (human) = RPS6KA6 KD2 (human) (UniProt Q9UK32)
Sequence of RPS6KA6 KD2 (human) (Q9UK32 whole entry, looked up): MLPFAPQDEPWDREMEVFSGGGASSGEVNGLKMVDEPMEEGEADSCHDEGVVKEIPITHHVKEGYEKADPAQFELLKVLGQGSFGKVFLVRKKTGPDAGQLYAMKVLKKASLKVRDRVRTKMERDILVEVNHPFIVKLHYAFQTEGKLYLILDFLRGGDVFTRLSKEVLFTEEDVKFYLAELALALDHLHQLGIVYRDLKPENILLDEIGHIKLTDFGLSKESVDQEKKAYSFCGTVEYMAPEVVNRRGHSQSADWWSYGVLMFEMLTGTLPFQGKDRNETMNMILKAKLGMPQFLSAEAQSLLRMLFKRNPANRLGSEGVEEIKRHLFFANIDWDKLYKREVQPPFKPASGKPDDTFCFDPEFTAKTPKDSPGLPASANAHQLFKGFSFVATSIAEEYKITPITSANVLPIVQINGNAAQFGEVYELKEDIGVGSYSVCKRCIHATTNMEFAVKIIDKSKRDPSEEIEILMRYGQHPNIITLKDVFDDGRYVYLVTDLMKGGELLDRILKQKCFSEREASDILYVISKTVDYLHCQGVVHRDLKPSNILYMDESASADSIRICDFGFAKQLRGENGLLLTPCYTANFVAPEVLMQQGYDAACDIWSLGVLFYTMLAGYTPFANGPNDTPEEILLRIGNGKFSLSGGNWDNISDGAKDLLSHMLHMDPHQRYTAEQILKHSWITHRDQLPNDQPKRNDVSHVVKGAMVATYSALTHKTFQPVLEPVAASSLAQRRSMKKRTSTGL

BMPR2 (human) = BMPR2 (human) (UniProt Q13873)
Sequence of BMPR2 (human) (Q13873 whole entry, looked up): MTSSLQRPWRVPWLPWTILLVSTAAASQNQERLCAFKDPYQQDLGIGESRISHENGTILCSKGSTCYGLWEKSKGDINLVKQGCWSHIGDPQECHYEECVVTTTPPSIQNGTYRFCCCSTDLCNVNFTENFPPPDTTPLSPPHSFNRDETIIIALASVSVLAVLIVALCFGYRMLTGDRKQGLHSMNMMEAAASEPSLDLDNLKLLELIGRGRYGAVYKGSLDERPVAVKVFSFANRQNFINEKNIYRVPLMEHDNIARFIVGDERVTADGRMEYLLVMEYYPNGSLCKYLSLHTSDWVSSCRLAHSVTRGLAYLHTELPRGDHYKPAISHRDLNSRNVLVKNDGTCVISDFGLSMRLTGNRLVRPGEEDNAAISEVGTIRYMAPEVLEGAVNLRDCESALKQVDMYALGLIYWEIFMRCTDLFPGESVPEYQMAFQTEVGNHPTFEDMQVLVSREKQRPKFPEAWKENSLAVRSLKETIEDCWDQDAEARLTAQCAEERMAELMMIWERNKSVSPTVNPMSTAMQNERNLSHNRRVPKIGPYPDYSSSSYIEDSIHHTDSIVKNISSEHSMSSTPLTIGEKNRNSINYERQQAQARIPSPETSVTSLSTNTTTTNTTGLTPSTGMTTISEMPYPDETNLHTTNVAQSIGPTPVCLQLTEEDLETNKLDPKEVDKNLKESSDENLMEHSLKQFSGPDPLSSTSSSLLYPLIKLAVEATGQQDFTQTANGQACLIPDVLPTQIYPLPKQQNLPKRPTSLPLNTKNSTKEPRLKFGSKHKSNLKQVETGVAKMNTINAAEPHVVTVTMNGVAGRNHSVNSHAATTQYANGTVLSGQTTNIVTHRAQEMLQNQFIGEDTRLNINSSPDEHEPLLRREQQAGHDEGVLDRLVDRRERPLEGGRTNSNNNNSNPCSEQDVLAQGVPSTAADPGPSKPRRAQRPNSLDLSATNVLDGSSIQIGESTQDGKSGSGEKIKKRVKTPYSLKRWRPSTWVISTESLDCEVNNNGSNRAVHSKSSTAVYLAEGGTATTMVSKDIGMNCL

CDK18 (human) = CDK18 (human) (UniProt Q07002)
TGFBR1 (human) = TGFBR1 (human) (UniProt P36897)
MST1R (human) = MST1R (human) (UniProt Q04912)
[3] = target: TYK2 JH2 pseudokinase (human) (UniProt P29597)
PIM2 (human) = PIM2 (human) (UniProt Q9P1W9)
MAP4K5 (human) = MAP4K5 (human) (UniProt Q9Y4K4)
NEK7 (human) = NEK7 (human) (UniProt Q8TDX7)
RPS6KA5 KD1 (human) = RPS6KA5 KD1 (human) (UniProt O75582)
MAP3K2 (human) = MAP3K2 (human) (UniProt Q9Y2U5)
IKBKB (human) = IKBKB (human) (UniProt O14920)
CDK4 CCND1 (human) = CDK4 CCND1 (human) (UniProt P11802+P24385)
CDKL3 (human) = CDKL3 (human) (UniProt Q8IVW4)
Sequence of CDKL3 (human) (Q8IVW4 whole entry, looked up): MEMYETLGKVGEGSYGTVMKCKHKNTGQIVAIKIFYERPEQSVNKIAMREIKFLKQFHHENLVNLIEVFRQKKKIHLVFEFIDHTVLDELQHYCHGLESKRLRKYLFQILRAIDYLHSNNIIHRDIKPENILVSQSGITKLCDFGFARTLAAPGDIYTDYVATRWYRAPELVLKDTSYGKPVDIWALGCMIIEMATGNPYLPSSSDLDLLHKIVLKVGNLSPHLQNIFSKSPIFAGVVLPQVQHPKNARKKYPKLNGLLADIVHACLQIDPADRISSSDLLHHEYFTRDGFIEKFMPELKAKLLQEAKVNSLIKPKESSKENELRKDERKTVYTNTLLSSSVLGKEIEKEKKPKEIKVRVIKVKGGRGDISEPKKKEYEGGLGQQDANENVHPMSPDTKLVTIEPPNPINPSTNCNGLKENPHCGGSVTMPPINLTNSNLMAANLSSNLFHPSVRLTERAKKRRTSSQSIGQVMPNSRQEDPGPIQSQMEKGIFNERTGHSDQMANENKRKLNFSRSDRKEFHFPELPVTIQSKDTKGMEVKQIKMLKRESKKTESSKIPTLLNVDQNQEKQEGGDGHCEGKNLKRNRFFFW

PDGFRB (human) = PDGFRB (human) (UniProt P09619)
RAF1 (human) = RAF1 (human) (UniProt P04049)
CDKL1 (human) = CDKL1 (human) (UniProt Q00532)
[4] = test system: MET (human), P08581 [Y1235D]
MAP4K4 (human) = MAP4K4 (human) (UniProt O95819)
Sequence of MAP4K4 (human) (O95819 whole entry, looked up): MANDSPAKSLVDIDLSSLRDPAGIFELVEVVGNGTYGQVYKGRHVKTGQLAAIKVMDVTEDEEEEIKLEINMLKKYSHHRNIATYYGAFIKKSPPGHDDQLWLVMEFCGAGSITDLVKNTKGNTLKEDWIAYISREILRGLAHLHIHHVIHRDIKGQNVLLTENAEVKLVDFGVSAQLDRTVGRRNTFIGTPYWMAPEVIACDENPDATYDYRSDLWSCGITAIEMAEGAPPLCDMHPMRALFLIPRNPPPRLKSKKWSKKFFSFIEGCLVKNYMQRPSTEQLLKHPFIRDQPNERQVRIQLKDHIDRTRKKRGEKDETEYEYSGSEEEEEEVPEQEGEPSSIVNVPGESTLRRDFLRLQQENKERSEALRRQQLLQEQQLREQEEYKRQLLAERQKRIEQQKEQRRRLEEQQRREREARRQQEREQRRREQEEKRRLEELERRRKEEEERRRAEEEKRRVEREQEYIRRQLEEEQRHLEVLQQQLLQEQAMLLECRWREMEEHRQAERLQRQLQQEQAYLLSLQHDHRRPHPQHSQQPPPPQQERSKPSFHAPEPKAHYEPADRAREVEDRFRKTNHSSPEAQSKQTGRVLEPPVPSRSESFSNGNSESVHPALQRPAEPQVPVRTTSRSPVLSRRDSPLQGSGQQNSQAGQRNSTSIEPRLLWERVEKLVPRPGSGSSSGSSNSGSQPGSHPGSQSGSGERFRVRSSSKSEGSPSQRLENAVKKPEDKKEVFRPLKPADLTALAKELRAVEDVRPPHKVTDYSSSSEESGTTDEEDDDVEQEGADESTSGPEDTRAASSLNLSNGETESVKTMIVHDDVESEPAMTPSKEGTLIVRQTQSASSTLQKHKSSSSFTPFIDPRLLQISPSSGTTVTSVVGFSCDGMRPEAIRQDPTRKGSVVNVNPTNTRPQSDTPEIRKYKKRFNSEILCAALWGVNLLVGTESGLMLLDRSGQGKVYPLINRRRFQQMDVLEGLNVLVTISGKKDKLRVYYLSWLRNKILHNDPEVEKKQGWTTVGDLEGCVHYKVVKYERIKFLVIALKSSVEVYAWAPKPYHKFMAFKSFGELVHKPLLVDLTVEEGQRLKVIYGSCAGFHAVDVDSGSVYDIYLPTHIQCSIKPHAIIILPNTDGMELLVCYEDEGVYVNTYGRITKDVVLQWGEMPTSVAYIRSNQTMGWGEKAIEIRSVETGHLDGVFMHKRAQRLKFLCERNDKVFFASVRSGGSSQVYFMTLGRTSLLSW

PAK1 (human) = PAK1 (human) (UniProt Q13153)
PAK3 (human) = PAK3 (human) (UniProt O75914)
CSNK1G3 (human) = CSNK1G3 (human) (UniProt Q9Y6M4)
[5] = test system: PIK3CA (human), P42336 [E545A]
EPHA1 (human) = EPHA1 (human) (UniProt P21709)

Sequence of MAPK3 (human) (P27361 whole entry, looked up): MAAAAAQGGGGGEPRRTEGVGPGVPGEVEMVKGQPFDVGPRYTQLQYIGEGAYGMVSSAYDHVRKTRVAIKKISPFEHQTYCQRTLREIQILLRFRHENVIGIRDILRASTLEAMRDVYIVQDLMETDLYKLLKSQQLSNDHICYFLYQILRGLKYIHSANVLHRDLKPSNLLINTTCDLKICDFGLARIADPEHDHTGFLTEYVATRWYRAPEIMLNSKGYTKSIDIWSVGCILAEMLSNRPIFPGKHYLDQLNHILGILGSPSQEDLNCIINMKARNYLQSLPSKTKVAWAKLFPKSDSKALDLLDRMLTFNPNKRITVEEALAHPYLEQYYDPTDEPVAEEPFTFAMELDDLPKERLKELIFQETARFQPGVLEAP

COCCNCCCn1c(C(=O)CF)c(-c2ccc(C)cc2)c2c(N)ncnc21
kinase still bound, per cent of control (MAP3K1 (human)): 100% | kinase still bound, per cent of control (MAPK3 (human)): 98% | kinase still bound, per cent of control (RIOK1 (human)): 69% | kinase still bound, per cent of control (ROCK2 (human)): 94% | kinase still bound, per cent of control (SRPK2 (human)): 100% | kinase still bound, per cent of control (MERTK (human)): 99% | kinase still bound, per cent of control [1]: 91% | kinase still bound, per cent of control (MARK3 (human)): 100% | kinase still bound, per cent of control (WEE2 (human)): 100% | kinase still bound, per cent of control (NTRK2 (human)): 74% | kinase still bound, per cent of control (MAP2K5 (human)): 46% | kinase still bound, per cent of control (MAP2K4 (human)): 78% | kinase still bound, per cent of control (RPS6KA4 KD1 (human)): 100% | kinase still bound, per cent of control [2]: 86% | kinase still bound, per cent of control (NUAK2 (human)): 96% | kinase still bound, per cent of control (PKN1 (human)): 100% | kinase still bound, per cent of control (STK32A (human)): 94% | kinase still bound, per cent of control (ACVR2A (human)): 100% | kinase still bound, per cent of control (HIPK3 (human)): 100% | kinase still bound, per cent of control (RPS6KA6 KD2 (human)): 2.4% | kinase still bound, per cent of control (BMPR2 (human)): 72% | kinase still bound, per cent of control (CDK18 (human)): 100% | kinase still bound, per cent of control (TGFBR1 (human)): 89% | kinase still bound, per cent of control (MST1R (human)): 100% | kinase still bound, per cent of control [3]: 100% | kinase still bound, per cent of control (PIM2 (human)): 99% | kinase still bound, per cent of control (MAP4K5 (human)): 86% | kinase still bound, per cent of control (NEK7 (human)): 100% | kinase still bound, per cent of control (RPS6KA5 KD1 (human)): 79% | kinase still bound, per cent of control (MAP3K2 (human)): 90% | kinase still bound, per cent of control (IKBKB (human)): 95% | kinase still bound, per cent of control (CDK4 CCND1 (human)): 98% | kinase still bound, per cent of control (CDKL3 (human)): 88% | kinase still bound, per cent of control (PDGFRB (human)): 68% | kinase still bound, per cent of control (RAF1 (human)): 99% | kinase still bound, per cent of control (CDKL1 (human)): 100% | kinase still bound, per cent of control [4]: 81% | kinase still bound, per cent of control (MAP4K4 (human)): 88% | kinase still bound, per cent of control (PAK1 (human)): 89% | kinase still bound, per cent of control (PAK3 (human)): 100% | kinase still bound, per cent of control (CSNK1G3 (human)): 98% | kinase still bound, per cent of control [5]: 100% | kinase still bound, per cent of control (EPHA1 (human)): 94%

From the kinase profiling compilation of Christmann-Franck et al. (2016)
